# Measurements published in patent publication US10874739B2, “Near-IR light-cleavable conjugates and conjugate precursors” (The United States of America, as represented by the …, priority 2016, dated 2020).
# Assays:
# [1] = tested on: MDA-MB-468 (EGFR+); assay: Near-IR light-dependent growth inhibition, MTT, pre-incubation assay (media exchanged prior to photolysis); type: cell-based, human; conditions: ±hν
# Protocol: (§1) MDA-MB-468 (EGFR overexpression) and MCF-7 (normal EGFR expression) human breast cancer cell lines were obtained from the NCI DTP, DCTD Tumor Repository. MDA-MB-468 was cultured in RPMI supplemented with 2 mM L-glutamine, 11 mM D-glucose, 24 mM sodium bicarbonate, 10% heat-inactivated fetal bovine serum, 100 units/mL penicillin, 100 μg/mL streptomycin, and 0.25 μg/mL amphotericin B. MCF-7 was cultured in DMEM supplemented with 4 mM L-glutamine, 25 mM D-glucose, 44 mM sodium bicarbonate, 10% heat-inactivated fetal bovine serum, 100 units/mL penicillin, 100 μg/mL streptomycin, and 0.25 μg/mL amphotericin B. Both cell lines were grown at 37° C. in an atmosphere of 20% O2 and 5% CO2. Stock cultures were maintained in continuously exponential growth by weekly passage of the appropriate number of cells following trypsinization with 0.25% Trypsin-EDTA (0.9 mM) in PBS.
# (§2) MDA-MB-468 or MCF-7 cells were seeded into 96-well plates (5×10^4 cells/well) and allowed to adhere overnight. […] Irradiation times may be calculated according to the following formula:
# (§3) [formula] […] Media was removed, 100 μL of DMSO added to each well to solubilize MTT formazan, and absorbance at 550 nm was recorded using a microplate reader. Drug effects were expressed as % cell viability relative to the DMSO (no inhibitor) control. […]
# [2] = tested on: MCF-7 (EGFR−); assay: as above; type: cell-based, human; conditions: ±hν
# Protocol: as §1, §2, §3
smiles,measurement,setting,value
"CN(C)CCOc1ccc2[nH]c(C(=O)N3C[C@@H](CCl)c4c3cc(O)c3ccccc43)cc2c1 [DuoDM, duocarmycin DM, reference compound]",IC50,[1],0.007 ± 0.0006 nM
same,IC50,[2],0.0133 ± 0.0011 nM
